As usually defined, the CC50 is the concentration at which the toxic effect on the cells reaches its halfway point. A lower CC50 goes with greater toxicity to the cells.

Structures can show the parent of a compound that is named as a salt.

One series is described as follows: in vitro. As to conditions: rat, gh3-tre-luc cells, AC50 (uM) modified / 1000.
Compound `C=C1C[C@H]2[C@@H]3CCC4=CC(=O)C=C[C@]4(C)[C@@]3(F)[C@@H](O)C[C@]2(C)[C@@]1(O)C(=O)COC(C)=O` [Fluprednidene acetate] registered a half-maximal cytotoxic concentration (CC50) at 24 h above 50 µM.
Same read-out and setting: next, `C[C@]12C=CC(=O)C=C1[C@@H](F)C[C@@H]1[C@@H]2[C@@H](O)C[C@@]2(C)[C@H]1CC[C@]2(O)C(=O)CO` [Fluprednisolone]: above 50 µM; `CCN(CC)CCN1C(=O)CN=C(c2ccccc2F)c2cc(Cl)ccc21` [Flurazepam]: 23.1 µM.
The same measure, in the same setting: next, `CC(=O)OC(C)OC(=O)C(C)c1ccc(-c2ccccc2)c(F)c1` (stereo not shown) [Flurbiprofen axetil]: above 50 µM.
Still for that read-out and setting: next, `O=C1C(Cl)C(CCl)CN1c1cccc(C(F)(F)F)c1` (stereo not shown) [Flurochloridone]: above 90 µM; `NP(N)(=O)NC(=O)c1ccc(F)cc1` [Flurofamide]: above 50 µM.
The compound `CC(=O)O[C@]1(C(C)=O)CC[C@H]2[C@@H]3CCC4=CC(=O)CC[C@]4(C)[C@@]3(F)[C@@H](O)C[C@@]21C` [Flurogestone acetate] came in with a cytotoxic concentration (CC50) at 24 h above 50 µM.
On the same count and under the same terms, next, `FC(F)(F)COCC(F)(F)F` [Flurothyl]: above 50 µM.
Still for that read-out and setting: for `CCCCCCC(C)OC(=O)COc1nc(F)c(Cl)c(N)c1Cl` (stereo not shown) [Fluroxypyr-meptyl] the value was 51.1 µM.
On the same count and under the same terms, for `Nc1c(Cl)c(F)nc(OCC(=O)O)c1Cl` [Fluroxypyr] the value was above 90 µM; for `CC(C)C(O)(c1ccc(OC(F)(F)F)cc1)c1cncnc1` (stereo not shown) [Flurprimidol], above 90 µM; for `C[Si](Cn1cncn1)(c1ccc(F)cc1)c1ccc(F)cc1` [Flusilazole], above 90 µM.
For the compound `O=C1NCN(c2ccccc2)C12CCN(CCCC(c1ccc(F)cc1)c1ccc(F)cc1)CC2` [Fluspirilene], the cytotoxic concentration (CC50) at 24 h was 4.02 µM.
On the same count and under the same terms, for `CC(C)C(=O)Nc1ccc([N+](=O)[O-])c(C(F)(F)F)c1` [Flutamide] the value was 88.9 µM; for `COC(=O)CSc1cc(/N=c2\sc(=O)n3n2CCCC3)c(F)cc1Cl` [Fluthiacet-methyl], above 90 µM.
The same measure, in the same setting: for `CCC(=O)O[C@]1(C(=O)SCF)[C@H](C)C[C@H]2[C@@H]3C[C@H](F)C4=CC(=O)C=C[C@]4(C)[C@@]3(F)[C@@H](O)C[C@@]21C` [Fluticasone propionate] the value was above 20 µM; for `CC(C)Oc1cccc(NC(=O)c2ccccc2C(F)(F)F)c1` [Flutolanil], above 90 µM; for `OC(Cn1cncn1)(c1ccc(F)cc1)c1ccccc1F` (stereo not shown) [Flutriafol], above 90 µM.
The compound `C[N+]1(CCF)[C@@H]2CC[C@H]1CC(OC(=O)C(O)(c1ccccc1)c1ccccc1)C2` (stereo partly shown) [Flutropium bromide] gave a CC50 at 24 h above 50 µM.
Still for that read-out and setting: for `CC(C)[C@H](Nc1ccc(C(F)(F)F)cc1Cl)C(=O)OC(C#N)c1cccc(Oc2ccccc2)c1` (stereo partly shown) [Fluvalinate] the value was above 90 µM.
Still for that read-out and setting: next, `COCCCC/C(=N\OCCN)c1ccc(C(F)(F)F)cc1` [Fluvoxamine]: 15 µM; `FC(F)(F)C(=NOCC1OCCO1)c1ccc(Cl)cc1` [Fluxofenim]: above 90 µM.
The same measure, in the same setting: next, `Nc1nc2ncc(CNc3ccc(C(=O)N[C@@H](CCC(=O)O)C(=O)O)cc3)nc2c(=O)[nH]1` [Folic acid]: above 90 µM; `CS(=O)(=O)NC(=O)c1cc(Oc2ccc(C(F)(F)F)cc2Cl)ccc1[N+](=O)[O-]` [Fomesafen]: above 90 µM; `CN(CC(=O)N1CCOCC1)Cc1c(Cl)cccc1NC(=O)c1ccccc1` [Fominoben hydrochloride]: above 50 µM.
The compound `c1ccc(OCc2ccc(CCCN3CCOCC3)cc2)cc1` [Fomocaine] had a CC50 at 24 h of 16.1 µM.
`CC(CN1c2ccccc2Sc2ccc(S(=O)(=O)N(C)C)cc21)N(C)C` (stereo not shown) [Fonazine]: it took 21.4 µM to reach half-maximal cytotoxicity (CC50 at 24 h). The CC50 at 24 h values of the last two compounds are within 1.5-fold of each other.
With `O=C(Nc1ccccc1)Nc1ccnc(Cl)c1` [Forchlorfenuron], the cytotoxic concentration (CC50) at 24 h worked out at 64.7 µM.
The same measure, in the same setting: next, `C=O` [Formalin]: above 100 µM.
Compound `NC=O` [Formamide] had a cytotoxic concentration (CC50) at 24 h above 100 µM.
The same measure, in the same setting: next, `O=CNc1ccccc1` [Formanilide]: above 90 µM; `O=CO` [Formic acid, potassium salt]: above 5 µM; `COc1ccc(-c2coc3cc(O)ccc3c2=O)cc1` [Formononetin]: above 90 µM.
Still for that read-out and setting: next, `COc1ccc(C[C@H](C)NC[C@@H](O)c2ccc(O)c(NC=O)c2)cc1` [Formoterol hemifumarate dihydrate]: above 50 µM.
The same measure, in the same setting: next, `COc1ccc(C[C@@H](C)NC[C@H](O)c2ccc(O)c(NC=O)c2)cc1` [Formoterol hemifumarate]: above 50 µM.
`C=C[C@@]1(C)CC(=O)[C@]2(O)[C@@]3(C)[C@@H](O)CCC(C)(C)[C@@H]3[C@H](O)[C@H](OC(C)=O)[C@@]2(C)O1` [Forskolin] returned a CC50 at 24 h above 90 µM.
Still for that read-out and setting: for `CC(C)CN(C[C@@H](OP(=O)(O)O)[C@H](Cc1ccccc1)NC(=O)O[C@H]1CCOC1)S(=O)(=O)c1ccc(N)cc1` [Fosamprenavir calcium] the value was above 50 µM; for `O=C(O)P(=O)(O)O` [Foscarnet trisodium], above 50 µM; for `NNC(=O)CP(=O)(c1ccccc1)c1ccccc1` [Fosenazide], above 50 µM.
Still for that read-out and setting: for `O=P(O)(O)OC(Cn1cncn1)(Cn1cncn1)c1ccc(F)cc1F` [Fosfluconazole] the value was above 50 µM.
On the same count and under the same terms, for `C[C@@H]1O[C@@H]1P(=O)(O)O` [Fosfomycin calcium] the value was above 50 µM.
In the case of `CCC(=O)O[C@@H](O[P@](=O)(CCCCc1ccccc1)CC(=O)N1C[C@H](C2CCCCC2)C[C@H]1C(=O)O)C(C)C` [Fosinopril sodium], the CC50 at 24 h is above 50 µM.
On to `C1CN(P2(N3CC3)=NP(N3CC3)(N3CC3)=NP(N3CC3)(N3CC3)=N2)CCO1` (stereo not shown) [Fotretamine], for which the CC50 at 24 h was above 50 µM.
In turn, `COc1ccc2nc(NC(=O)Nc3ccccc3)sc2c1` [Frentizole] yielded a 50% cytotoxic concentration (CC50) at 24 h above 50 µM.
The same measure, in the same setting: for `C[C@@H](O)[C@H]1C(=O)N2C(C(=O)O)=C([C@H]3CCCO3)S[C@H]12` [Fropenem] the value was above 50 µM.
In turn, `CN[C@@H]1CCc2[nH]c3ccc(C(N)=O)cc3c2C1` [Frovatriptan Succinate monohydrate] registered a half-maximal cytotoxic concentration (CC50) at 24 h above 50 µM.
The same measure, in the same setting: next, `Cc1cccc(C)c1NC(=O)c1ccccc1C(=O)O` [Ftaxilide]: above 50 µM; `CN1CCN(CCC(=O)N2c3ccccc3Sc3ccc(C(F)(F)F)cc32)CC1` [Ftormetazine]: 25.8 µM; `O=C(CCN1CCN(CCO)CC1)N1c2ccccc2Sc2ccc(C(F)(F)F)cc21` [Ftorpropazine]: 16.3 µM.
`c1coc(-c2nc3ccccc3[nH]2)c1` [Fuberidazole] registered a CC50 at 24 h above 90 µM.
The compound `N[C@@H](CSCCCO)C(=O)O` [Fudosteine] returned a CC50 at 24 h above 50 µM.
Regarding `O=C(O)/C=C/C(=O)O` [Fumaric acid], the CC50 at 24 h was above 100 µM.
Same read-out and setting: for `O=C(Cl)/C=C/C(=O)Cl` [Fumaryl chloride] the value was above 90 µM; for `Cc1nc2c([nH]1)c(=O)n(C)c(=O)n2Cc1ccco1` [Furafylline], above 50 µM.
Same read-out and setting: next, `COC(=O)C(C)N(C(=O)c1ccco1)c1c(C)cccc1C` (stereo not shown) [Furalaxyl]: above 90 µM.
Still for that read-out and setting: next, `O=C1OC(CN2CCOCC2)CN1/N=C/c1ccc([N+](=O)[O-])o1` (stereo not shown) [Furaltadone hydrochloride]: above 20 µM; `c1ccoc1` [Furan]: above 90 µM.
Turning to `O=C(O)c1cc2cc(Cc3cccnc3)ccc2o1` [Furegrelate sodium], the half-maximal cytotoxic concentration (CC50) at 24 h is above 50 µM.
`CC(=O)C=Cc1ccco1` [Furfural acetone] displayed a CC50 at 24 h above 100 µM.
Consider `O=Cc1ccco1` [Furfural], for which the half-maximal cytotoxic concentration (CC50) at 24 h was above 90 µM.
Take `CC(=O)OCc1ccco1` [Furfuryl acetate]: the CC50 at 24 h was above 90 µM.
The same measure, in the same setting: next, `OCc1ccco1` [Furfuryl alcohol]: above 90 µM; `CC(C)SCc1ccco1` [Furfuryl isopropyl sulfide]: above 40 µM.
On the same count and under the same terms, next, `CC(=O)O[C@H]1C[C@@]2(C)[C@@H](C[C@@H](O)[C@H]3[C@@]4(C)CC[C@@H](O)[C@@H](C)[C@@H]4CC[C@@]32C)/C1=C(\CCC=C(C)C)C(=O)O` [Fusidate sodium]: above 50 µM; `Fc1ccc(C(OCCN2CCN(CCCc3ccccc3)CC2)c2ccc(F)cc2)cc1` [GBR 12909 dihydrochloride]: 8.65 µM.

The same series, now with this note: rat, gh3-tre-luc cells, AC50 (uM) modified / 1000, Tox21_110001=Tox21_110149; viability, 1 nM T3 present, 24 h.
As for `CCCCc1ccc(C(=O)O)nc1` [Fusaric acid], the CC50 at 24 h is above 50 µM.

Still in this series, the particulars now being: rat, gh3-tre-luc cells, AC50 (uM) modified / 1000, Tox21_110001=Tox21_111794; viability, 1 nM T3 present, 24 h.
Turning to `CC(Cc1ccccc1)NC=O` (stereo not shown) [Formetorex], the CC50 at 24 h was above 50 µM.

The same series, now with this note: rat, gh3-tre-luc cells, AC50 (uM) modified / 1000, Tox21_110001=Tox21_112772; viability, 1 nM T3 present, 24 h.
In turn, `C[C@]12Cc3nonc3C[C@@H]1CC[C@@H]1[C@@H]2CC[C@@]2(C)[C@H]1CC[C@]2(C)O` [Furazabol] displayed a CC50 at 24 h of 25.2 µM.

The same series, now with this note: rat, gh3-tre-luc cells, AC50 (uM) modified / 1000, Tox21_110001=Tox21_201151; viability, 1 nM T3 present, 24 h.
As for `N#C/C=C/C#N` [Fumaronitrile], the half-maximal cytotoxic concentration (CC50) at 24 h was 49.9 µM.

Still in this series, the particulars now being: rat, gh3-tre-luc cells, AC50 (uM) modified / 1000, Tox21_110001=Tox21_300778; viability, 1 nM T3 present, 24 h.
`CNC(=O)Oc1cccc(N=CN(C)C)c1` [Formetanate hydrochloride] returned a CC50 at 24 h above 90 µM.

Still in this series, the particulars now being: rat, gh3-tre-luc cells, AC50 (uM) modified / 1000, Tox21_110001=Tox21_301059; viability, 1 nM T3 present, 24 h.
Consider `CCOP(=O)(SC(C)CC)N1CCSC1=O` (stereo not shown) [Fosthiazate], for which the CC50 at 24 h is above 90 µM.

Still in this series, the particulars now being: rat, gh3-tre-luc cells, AC50 (uM) modified / 1000, Tox21_110001=Tox21_301428; viability, 1 nM T3 present, 24 h.
`COC(=O)C1(O)c2ccccc2-c2ccccc21` [Flurenol-methyl] showed a half-maximal cytotoxic concentration (CC50) at 24 h above 90 µM.

The same series, now with this note: rat, gh3-tre-luc cells, AC50 (uM) modified / 1000, Tox21_110001=Tox21_301917; viability, 1 nM T3 present, 24 h.
Compound `CCOP(=O)(O)C(N)=O` [Fosamine ammonium] gave a CC50 at 24 h above 90 µM.

The values above are taken from publication PMC6792352, “Limited Chemical Structural Diversity Found to Modulate Thyroid Hormone Receptor in the Tox21 Chemical Library” (Environmental Health Perspectives, 2019).
